Experimental data reported in ChEMBL document CHEMBL3301361, “Experimental in vitro DMPK and physicochemical data on a set of publicly disclosed compounds”.

What was measured:
in vitro = details: human
physchem = details: octan-1-ol/water, pH 7.4, LogD7.4

**Q.** Which results are given for `Cc1ccc(S(=O)(=O)NC(=O)N2CCC(N3CCC(Oc4ccc(F)c(F)c4)CC3)CC2)cc1`?
**A.** microsomal CLint (in vitro; liver microsomes): < 3 µL/min/mg; logD (physchem): 0.75

**Q.** With `O=C(NS(=O)(=O)Cc1ccccc1)N1CCC(N2CCC(Oc3ccc(Cl)c(Cl)c3)CC2)CC1` as the compound, how does the microsomal CLint (in vitro; liver microsomes) read?
**A.** < 3 µL/min/mg

**Q.** What about the logD (physchem) of the same compound?
**A.** 2.13

**Q.** For `Cc1cc(Cl)ccc1OC1CCN(C[C@H](O)CNC(=O)c2c[nH]nc2C(F)(F)F)CC1`, which microsomal CLint (in vitro; microsomes) is on record?
**A.** < 3 µL/min/mg

**Q.** And the logD (physchem)?
**A.** 3.02

**Q.** Which results are given for `Cc1c(Cl)ccc(OC2CCN(C[C@H](O)CNC(=O)c3c[nH]nc3C(F)(F)F)CC2)c1Cl`?
**A.** microsomal CLint (in vitro; liver microsomes): < 3 µL/min/mg; logD (physchem): 3.66

**Q.** For `O=C(NC[C@@H](O)CN1CCC(Oc2ccc(Cl)c(Cl)c2)CC1)c1n[nH]c2ccccc12`, which microsomal CLint (in vitro; liver microsomes) is on record?
**A.** < 3 µL/min/mg

**Q.** And the logD (physchem)?
**A.** 2.95

**Q.** For `O=C(NC[C@@H](O)CN1CCC(Oc2ccc(Cl)c(Cl)c2)CC1)c1c[nH]c2ccccc12`, which microsomal CLint (in vitro; microsomes) is on record?
**A.** < 3 µL/min/mg

**Q.** What about the logD (physchem) of the same compound?
**A.** 3.91

**Q.** For `O=C(NC[C@@H](O)CN1CCC(Oc2ccc(Cl)c(Cl)c2)CC1)c1n[nH]c(=O)c2ccccc12`, which microsomal CLint (in vitro; liver microsomes) is on record?
**A.** 3 µL/min/mg

**Q.** And the logD (physchem)?
**A.** 3.69

**Q.** For `O=C(NC[C@@H](O)CN1CCC(Oc2ccc(Cl)c(Cl)c2)CC1)n1c(=O)[nH]c2ccccc21`, which microsomal CLint (in vitro; microsomes) is on record?
**A.** < 3 µL/min/mg

**Q.** And the logD (physchem)?
**A.** 4.46

**Q.** Which microsomal CLint (in vitro; liver microsomes) does the source give for `O=C(NC[C@@H](O)CN1CCC(Oc2ccc(Cl)c(Cl)c2)CC1)c1cnnc2ccccc12` here?
**A.** 8 µL/min/mg

**Q.** What about the logD (physchem) of the same compound?
**A.** 3.28

**Q.** For `CC(=O)Nc1ccc(O)cc1OC[C@@H](O)CN1CCC2(CC1)Cc1cc(F)ccc1O2`, which microsomal CLint (in vitro; microsomes) is on record?
**A.** < 3 µL/min/mg

**Q.** And the logD (physchem)?
**A.** 2.1

**Q.** For `COCCNCc1ccc(Nc2ncc3cc(-c4ccncc4)ccc3n2)cc1`, which microsomal CLint (in vitro; liver microsomes) is on record?
**A.** 42.7 µL/min/mg

**Q.** And the logD (physchem)?
**A.** 1.86

**Q.** For `Nc1nccc(-n2ccc3ccccc32)n1`, which microsomal CLint (in vitro; liver microsomes) is on record?
**A.** 112 µL/min/mg

**Q.** What about the logD (physchem) of the same compound?
**A.** 2.71

**Q.** What does the source list for `c1cn(-c2ccc(Oc3nccc(Oc4ccc5c(c4)OCO5)n3)cc2)cn1`?
**A.** microsomal CLint (in vitro; microsomes): 13 µL/min/mg; logD (physchem): 3.27

**Q.** With `Cc1cnc(Oc2ccc(-n3ccnc3)cc2)nc1Oc1ccc2c(c1)OCO2` as the compound, how does the microsomal CLint (in vitro; liver microsomes) read?
**A.** < 3 µL/min/mg

**Q.** What about the logD (physchem) of the same compound?
**A.** 3.56

**Q.** What does the source list for `C[C@H](CO)Nc1nc(SCc2ccccc2)nc2[nH]c(=O)[nH]c12`?
**A.** microsomal CLint (in vitro; liver microsomes): < 3 µL/min/mg; logD (physchem): 2.75

**Q.** For `C[C@H](CO)Nc1nc(SCc2cccc(F)c2F)nc2[nH]c(=O)ccc12`, which microsomal CLint (in vitro; liver microsomes) is on record?
**A.** 9 µL/min/mg

**Q.** What about the logD (physchem) of the same compound?
**A.** 3.36

**Q.** Which results are given for `CSc1nc(-c2ccccc2)nn1Cc1ccccc1`?
**A.** microsomal CLint (in vitro; microsomes): 116 µL/min/mg; logD (physchem): 3.83

**Q.** Which microsomal CLint (in vitro; liver microsomes) does the source give for `O=C(NCC12CC3CC(CC(C3)C1)C2)c1ccccc1Cl` here?
**A.** 69 µL/min/mg

**Q.** What about the logD (physchem) of the same compound?
**A.** 4.05

**Q.** What does the source list for `CCO/N=C(\c1ccc(Br)cc1)C1CCN(C2(C)CCN(C(=O)c3c(Cl)cncc3Cl)CC2)CC1`?
**A.** microsomal CLint (in vitro; liver microsomes): 4 µL/min/mg; logD (physchem): 4

**Q.** With `CCN(C(=O)Cc1ccc([N+](=O)[O-])cc1)C1CCN(CCC(c2ccccc2)c2ccccc2)CC1` as the compound, how does the microsomal CLint (in vitro; liver microsomes) read?
**A.** 13 µL/min/mg

**Q.** And the logD (physchem)?
**A.** 4.1

**Q.** For `CCCN1CCC(Oc2nccc(Nc3cc(NC(=O)c4cccc(N5CCOCC5)c4)ccc3C)n2)CC1`, which microsomal CLint (in vitro; liver microsomes) is on record?
**A.** 54 µL/min/mg

**Q.** And the logD (physchem)?
**A.** 2.6

**Q.** For `CCN(C(=O)Cc1ccc(S(C)(=O)=O)cc1)C1CCN(CCC(c2ccccc2)c2ccccc2)CC1`, which microsomal CLint (in vitro; liver microsomes) is on record?
**A.** 16 µL/min/mg

**Q.** What about the logD (physchem) of the same compound?
**A.** 3

**Q.** Which microsomal CLint (in vitro; liver microsomes) does the source give for `Nc1nc2nc(SCc3cccc(F)c3F)[nH]c(=O)c2s1` here?
**A.** < 3 µL/min/mg

**Q.** What about the logD (physchem) of the same compound?
**A.** 2.5

**Q.** What does the source list for `Nc1nc(NCc2ccccc2)nc2c1nc(O)n2Cc1ccccc1`?
**A.** microsomal CLint (in vitro; microsomes): 11 µL/min/mg; logD (physchem): 3.69

**Q.** With `Cc1cc(Oc2ccc3c(c2)OCO3)nc(Oc2ccc(-n3ccnc3)cc2)n1` as the compound, how does the microsomal CLint (in vitro; liver microsomes) read?
**A.** < 3 µL/min/mg

**Q.** And the logD (physchem)?
**A.** 3.47

**Q.** For `NC(=O)Nc1sc(-c2ccccc2)cc1C(N)=O`, which microsomal CLint (in vitro; microsomes) is on record?
**A.** 21 µL/min/mg

**Q.** What about the logD (physchem) of the same compound?
**A.** 2.42

**Q.** What does the source list for `COc1ccc(C)c(NC(=O)CC23CC4CC(CC(C4)C2)C3)c1`?
**A.** microsomal CLint (in vitro; liver microsomes): > 150 µL/min/mg; logD (physchem): 3.96

**Q.** What does the source list for `COCCNCc1ccc(-c2cc(C(N)=O)c(NC(N)=O)s2)cc1`?
**A.** microsomal CLint (in vitro; liver microsomes): 3 µL/min/mg; logD (physchem): 0.87

**Q.** With `CN(C)CCCOc1ccc(-c2cc(C(N)=O)c(NC(N)=O)s2)cc1` as the compound, how does the microsomal CLint (in vitro; liver microsomes) read?
**A.** 6 µL/min/mg

**Q.** What about the logD (physchem) of the same compound?
**A.** 0.64

**Q.** What does the source list for `CC(=O)c1ccc(N2CCN(S(=O)(=O)C[C@]34CC[C@H](CC3=O)C4(C)C)CC2)nc1`?
**A.** microsomal CLint (in vitro; liver microsomes): > 150 µL/min/mg; logD (physchem): 2.21

**Q.** For `COc1ccc(N(C(=O)c2occc2Cl)C(C(=O)NC[C@@H](C)O)c2ccccc2F)c(OC)c1` (some centres undefined), which microsomal CLint (in vitro; microsomes) is on record?
**A.** 145 µL/min/mg

**Q.** Which results are given for `CC1(C)[C@@H]2CC[C@@]1(CS(=O)(=O)NC1CCN(c3ccc(C(F)(F)F)cn3)CC1)C(=O)C2`?
**A.** microsomal CLint (in vitro; liver microsomes): 75 µL/min/mg; logD (physchem): 3.84

**Q.** With `O=C(CC12CC3CC(CC(C3)C1)C2)Nc1ccc2[nH]ncc2c1` as the compound, how does the microsomal CLint (in vitro; liver microsomes) read?
**A.** 21 µL/min/mg

**Q.** What about the logD (physchem) of the same compound?
**A.** 4.03

**Q.** What does the source list for `O=C(CC12CC3CC(CC(C3)C1)C2)Nc1c(Cl)ccc2nc(CN3CCN(CCO)CC3)ccc12`?
**A.** microsomal CLint (in vitro; liver microsomes): 79.5 µL/min/mg; logD (physchem): 2.93

**Q.** What does the source list for `CC1CCC(CC(=O)Nc2cccc3ncccc23)CC1` (centres undefined)?
**A.** microsomal CLint (in vitro; liver microsomes): 38 µL/min/mg; logD (physchem): 3.56

**Q.** For `O=C(CC1CCCCC1)Nc1c(Cl)ccc2nc(NCCCO)ccc12`, which microsomal CLint (in vitro; microsomes) is on record?
**A.** 25 µL/min/mg

**Q.** What about the logD (physchem) of the same compound?
**A.** 3.29

**Q.** Which microsomal CLint (in vitro; liver microsomes) does the source give for `O=C(O)c1cccc(-c2ccc3c(C(=O)NCC45CC6CC(CC(C6)C4)C5)c(Cl)ccc3n2)c1` here?
**A.** 33 µL/min/mg

**Q.** What about the logD (physchem) of the same compound?
**A.** 2.84

**Q.** Which microsomal CLint (in vitro; liver microsomes) does the source give for `CCCCC(CC)CNC(=O)c1cc(-n2ncc(=O)[nH]c2=O)ccc1Cl` (centres undefined) here?
**A.** 24 µL/min/mg

**Q.** And the logD (physchem)?
**A.** 2.41

**Q.** What does the source list for `N=C(N)c1cc2c(I)cccc2s1`?
**A.** microsomal CLint (in vitro; liver microsomes): 4 µL/min/mg; logD (physchem): 0.74

**Q.** Which microsomal CLint (in vitro; microsomes) does the source give for `CCN(CC)Cc1cc(Nc2ccnc3cc(Cl)ccc23)ccc1O` [AMODIAQUINE] here?
**A.** > 150 µL/min/mg

**Q.** For `CC(C(=O)O)c1ccc(-c2ccccc2)c(F)c1` (centres undefined) [FLURBIPROFEN], which microsomal CLint (in vitro; liver microsomes) is on record?
**A.** 23.5 µL/min/mg
